Experimental data: ChEMBL document CHEMBL1157994, “Three new metabolites from marine-derived fungi of the genera coniothyrium and microsphaeropsis” (J Nat Prod, 1999)
Active and inactive are the calls of the source. The calls are words filed in the database; no cut-off is given here.

The compounds below were run on Aspergillus pseudoglaucus (assay: Antifungal activity against Eurotium repens at 50 ug by agar diffusion test).
Format: functional, organism-based

Question: For `COc1cc2c(c(O)c1Cl)C(=O)O[C@H](C)C2`, which Activity is on record?
Answer: Active

Question: With `CO[C@]12C=C3C=CC(=O)[C@@H](C)[C@@]3(C)C[C@@]1(O)[C@H](C)CO2` as the compound, how does the Activity read?
Answer: Active

Question: Which Activity does the source give for `O=C1CCC(O)c2cccc(O)c21` (stereo not drawn) here?
Answer: Active

Question: For `C[C@@H]1Cc2cccc(O)c2C(=O)O1`, which Activity is on record?
Answer: Active

Question: How did the Activity turn out when `C[C@H]1OC(=O)c2c(O)cccc2[C@H]1O` was run?
Answer: Active

Question: Which Activity does the source give for `COc1cc(O)c2c(c1)C[C@@H](C)OC2=O` here?
Answer: Active

These compounds were tested on Microbotryum violaceum (assay: Antifungal activity against Ustilago violacea at 50 ug by agar diffusion test).
Format: functional, organism-based

Question: For `CO[C@]12C=C3C=CC(=O)[C@@H](C)[C@@]3(C)C[C@@]1(O)[C@H](C)CO2`, which Activity is on record?
Answer: Active

Question: How did the Activity turn out when `C[C@H]1OC(=O)c2c(O)cccc2[C@@H]1O` was run?
Answer: Active

Question: Which Activity does the source give for `O=C1CCC(O)c2cccc(O)c21` (stereo not drawn) here?
Answer: Active

Question: With `CC(=O)[C@@H](C)c1cc(O)cc(O)c1` as the compound, how does the Activity read?
Answer: Active

Question: How did the Activity turn out when `C[C@H]1OC(=O)c2c(O)cccc2[C@H]1O` was run?
Answer: Active

What follows are compounds tested on Mycotypha microspora (assay: Antifungal activity against Mycotypha microspora at 50 ug by agar diffusion test).
Format: functional, organism-based

Question: With `CC(=O)[C@@H](C)c1cc(O)cc(O)c1` as the compound, how does the Activity read?
Answer: Active

These compounds were tested on Priestia megaterium (assay: […] activity against Bacillus megaterium at 50 ug by agar diffusion test).
Format: functional, organism-based

Question: For `OCc1ccco1`, which Activity is on record?
Answer: Active
